Results as given in US11306066B2, “4H-pyran compounds as insulin-regulated aminopeptidase (IRAP) inhibitors” (Monash University, priority 2015, dated 2022).
Like-named read-outs stand apart in the source and are kept apart here. Blank lines part the entries; values can stand above or below the compound they belong to.

Biological target: T1, recombinant IRAP (Homo sapiens, UniProt Q9UIQ6)
T1 construct: expressed in transfected cells; host or cells: HEK 293T
Assay: IRAP enzymatic assay (hydrolysis of Leu-MCA)
Assay type: biochemical
Conditions: for Ki: calculated from IC50, substrate Leu-MCA; for IC50: substrate Leu-MCA
Protocol: An in vitro enzymatic assay was used to initially assess IRAP inhibitory activity.
Crude membranes were prepared from HEK 293T cells transfected with IRAP or empty vector, then solubilized in buffer consisting of 50 mM Tris-HCl, 1% Triton X-100, pH 7.4 at 4° C. under agitation over 5 h. After solubilization, the membranes were pelleted by centrifugation at 23,100 g for 15 min at 4° C., and the supernatant was reserved as the source of IRAP activity. The enzymatic activities of recombinant IRAP were determined by the hydrolysis of the synthetic substrate Leu-MCA (Sigma-Aldrich, Missouri, USA) monitored by the release of a fluorogenic product, MCA, at excitation and emission wavelengths of 380 and 440 nm, respectively. Assays were performed in 96-well plates; each well contains between 0.2-10 μg solubilized membrane protein, a range of concentration of substrate in a final volume of 100 μL 50 mM Tris-HCl buffer (pH 7.4). Non-specific hydrolysis of the substrate was corrected by subtracting the emission from incubations with membranes transfected with empty vector. Reactions proceeded at 37° C. for 30 min within a thermostatted FLEX station fluorescence microplate reader (Molecular Devices, Sunnyvale, Calif.). The kinetic parameters (Km and V) were determined by non-linear fitting of the Michaelis-Menten equation (GraphPad Prism, GraphPad Software Inc., CA, USA); final concentrations of Leu-MCA of 15.6 μM-1 mM. Inhibitor constants (Ki) for the competitive inhibitors were calculated from the relationship IC50=[…], where IC50 values were determined over a range of inhibitor concentrations (10^−9 to 10^−4 M). Km values of IRAP for Leu-MCA were determined from the kinetic studies. Binding affinities of the compounds to IRAP were examined by monitoring the inhibition of the hydrolysis of Leu-MCA in the presence of increasing concentrations of the compounds (10^−8 to 10^−3 M). All data obtained were from at least three separate experiments performed in duplicate.
The results for some compounds of Formula (I) are set out below in Tables 2-1 to 2-8. The compounds were obtained commercially (Specs, Interbioscreen Ltd and Chembridge Corporation) or prepared according to the procedures outlined above.

T1 sequence (Q9UIQ6 whole entry): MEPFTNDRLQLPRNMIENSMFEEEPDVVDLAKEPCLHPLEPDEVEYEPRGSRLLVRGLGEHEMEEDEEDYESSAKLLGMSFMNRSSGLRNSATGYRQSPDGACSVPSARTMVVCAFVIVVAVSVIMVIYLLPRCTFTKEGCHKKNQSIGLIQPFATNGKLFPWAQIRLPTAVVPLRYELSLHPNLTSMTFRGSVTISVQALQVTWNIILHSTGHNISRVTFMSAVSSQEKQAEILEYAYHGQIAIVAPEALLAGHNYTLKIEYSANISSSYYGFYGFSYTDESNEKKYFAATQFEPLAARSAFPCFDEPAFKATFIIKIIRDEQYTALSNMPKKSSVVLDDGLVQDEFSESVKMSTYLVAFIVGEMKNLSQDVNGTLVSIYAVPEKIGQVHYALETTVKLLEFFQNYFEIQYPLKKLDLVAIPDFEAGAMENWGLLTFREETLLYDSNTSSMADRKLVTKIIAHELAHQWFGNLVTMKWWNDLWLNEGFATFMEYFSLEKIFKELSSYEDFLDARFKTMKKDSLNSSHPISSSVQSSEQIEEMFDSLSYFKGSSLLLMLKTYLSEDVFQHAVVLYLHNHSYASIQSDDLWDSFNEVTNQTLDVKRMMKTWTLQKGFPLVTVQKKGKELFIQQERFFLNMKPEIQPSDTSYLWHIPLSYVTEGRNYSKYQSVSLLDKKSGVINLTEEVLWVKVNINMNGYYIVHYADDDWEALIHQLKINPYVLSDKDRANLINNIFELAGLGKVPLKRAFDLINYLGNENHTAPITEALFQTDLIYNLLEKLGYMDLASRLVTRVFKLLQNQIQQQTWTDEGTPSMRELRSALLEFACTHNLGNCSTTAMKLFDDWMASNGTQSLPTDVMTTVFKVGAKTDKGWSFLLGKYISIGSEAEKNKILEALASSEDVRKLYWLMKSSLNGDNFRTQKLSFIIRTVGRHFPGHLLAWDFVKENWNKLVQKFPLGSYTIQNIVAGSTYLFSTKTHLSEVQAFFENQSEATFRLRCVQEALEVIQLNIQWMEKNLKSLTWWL

Ki (Table 2-1): 13.7 µM
IC50 (Table 2-1, read-out: IC50): 23 µM
SMILES: CCOC(=O)C1=C(C)OC(N)=C(C#N)C1c1cc(Br)c(O)c(OC)c1 (stereo not shown) [Compound 11a]

Ki (Table 2-1): 13.1 µM
IC50 (Table 2-1, read-out: IC50): 22 µM
SMILES: CCOC(=O)C1=C(C)OC(N)=C(C#N)C1c1ccc(O)c(OC)c1 (stereo not shown) [Compound 11b]

Ki (Table 2-1): 61.3 µM
IC50 (Table 2-1, read-out: IC50): 103 µM
SMILES: CCOC(=O)C1=C(C)OC(N)=C(C#N)C1c1ccc(O)cc1 (stereo not shown) [Compound 11e]

IC50 (Table 2-1, read-out: IC50): > 50 µM
SMILES: CCOC(=O)C1=C(C)OC(N)=C(C#N)C1c1ccc2c(c1)OCO2 (stereo not shown) [Compound 11g]

Ki (Table 2-1): 37.5 µM
IC50 (Table 2-1, read-out: IC50): 63 µM
SMILES: CCOC(=O)C1=C(C)OC(N)=C(C#N)C1c1cc(OC)c2c(c1)OCO2 (stereo not shown) [Compound 11h]

IC50 (Table 2-1, read-out: IC50): > 50 µM
SMILES: CCOC(=O)C1=C(C)OC(N)=C(C#N)C1c1ccc(OC)c(OC)c1 (stereo not shown) [Compound 11i]

IC50 (Table 2-1, read-out: IC50): > 100 µM
SMILES: CCOC(=O)C1=C(C)OC(N)=C(C#N)C1c1ccc(C#N)cc1 (stereo not shown) [Compound 11j]

Ki (Table 2-1): 18.4 µM
IC50 (Table 2-1, read-out: IC50): 31 µM
SMILES: CCOC(=O)C1=C(C)OC(N)=C(C#N)C1c1ccc(C(=O)O)cc1 (stereo not shown) [Compound 11k, 4-(2-Amino-3-cyano-5-(ethoxycarbonyl)-6-methyl-4H-pyran-4-yl)benzoic Acid]

IC50 (Table 2-1, read-out: IC50): > 100 µM
SMILES: CCOC(=O)C1=C(C)OC(N)=C(C#N)C1c1ccc([N+](=O)[O-])cc1 (stereo not shown) [Compound 11l]

IC50 (Table 2-1, read-out: IC50): > 100 µM
SMILES: CCOC(=O)C1=C(C)OC(N)=C(C#N)C1c1cccc(C(=O)O)c1 (stereo not shown) [Compound 11m, 3-(2-Amino-3-cyano-5-(ethoxycarbonyl)-6-methyl-4H-pyran-4-yl)benzoic Acid]

SMILES: CCOC(=O)C1=C(C)OC(N)=C(C#N)C1c1ccc(OC(C)=O)c(C)c1 (stereo not shown) [Compound 11n, Ethyl 4-(4-acetoxy-3-methylphenyl)-6-amino-5-cyano-2-methyl-4H-pyran-3-carboxylate]
IC50 (Table 2-1, read-out: IC50): > 100 µM

SMILES: CCOC(=O)C1=C(C)OC(N)=C(C#N)C1c1cc(C)c(OC(C)=O)c(C)c1 (stereo not shown) [Compound 11o, Ethyl 4-(4-acetoxy-3,5-dimethylphenyl)-6-amino-5-cyano-2-methyl-4H-pyran-3-carboxylate]
IC50 (Table 2-1, read-out: IC50): > 100 µM

IC50 (Table 2-1, read-out: IC50): > 100 µM
SMILES: CCOC(=O)C1=C(C)OC(N)=C(C#N)C1c1ccc(-c2ccccn2)cc1 (stereo not shown) [Compound 11p, Ethyl 6-amino-5-cyano-2-methyl-4-(4-(pyridin-2-yl)phenyl)-4H-pyran-3-carboxylate]

IC50 (Table 2-1, read-out: IC50): > 50 µM
SMILES: CCOC(=O)C1=C(C)OC(N)=C(C#N)C1c1cccnc1 (stereo not shown) [Compound 11q]

IC50 (Table 2-1, read-out: IC50): > 100 µM
SMILES: CCOC(=O)C1=C(C)OC(N)=C(C#N)C1c1ccncc1 (stereo not shown) [Compound 11r]

IC50 (Table 2-1, read-out: IC50): 3 to 40 µM
SMILES: CCOC(=O)C1=C(C)OC(N)=C(C#N)C1c1ccc2ccccc2n1 (stereo not shown) [Compound 11s, Ethyl 6-amino-5-cyano-2-methyl-4-(quinolin-2-yl)-4H-pyran-3-carboxylate]

IC50 (Table 2-1, read-out: IC50): > 100 µM
SMILES: CCOC(=O)C1=C(C)OC(N)=C(C#N)C1c1cnc2ccccc2c1 (stereo not shown) [Compound 11t, Ethyl 6-amino-5-cyano-2-methyl-4-(quinolin-3-yl)-4H-pyran-3-carboxylate]

IC50 (Table 2-1, read-out: IC50): > 100 µM
SMILES: CCOC(=O)C1=C(C)OC(N)=C(C#N)C1c1ccnc2ccccc12 (stereo not shown) [Compound 11u, Ethyl 6-amino-5-cyano-2-methyl-4-(quinolin-4-yl)-4H-pyran-3-carboxylate]

Ki (Table 2-2): 85.1 µM
IC50 (Table 2-2, read-out: IC50): 143 µM
SMILES: CCOC(=O)C1=C(CC)OC(N)=C(C#N)C1c1ccc(O)c(OC)c1 (stereo not shown) [Compound 12a]

Ki (Table 2-2): 67.2 µM
IC50 (Table 2-2, read-out: IC50): 113 µM
SMILES: CCOC(=O)C1=C(CC)OC(N)=C(C#N)C1c1ccc(O)c(OCC)c1 (stereo not shown) [Compound 12c]

Ki (Table 2-3): 8.3 µM
IC50 (Table 2-3, read-out: IC50): 14 µM
SMILES: COC(=O)C1=C(C)OC(N)=C(C#N)C1c1ccc(C(=O)O)cc1 (stereo not shown) [Compound 13b, 4-(2-Amino-3-cyano-5-(methoxycarbonyl)-6-methyl-4H-pyran-4-yl)benzoic Acid]

IC50 (Table 2-3, read-out: IC50): > 100 µM
SMILES: COC(=O)C1=C(C)OC(N)=C(C#N)C1c1ccc(O)cc1 (stereo not shown) [Compound 13c]

Ki (Table 2-3): 8.3 µM
IC50 (Table 2-3, read-out: IC50): 14 µM
SMILES: COC(=O)C1=C(C)OC(N)=C(C#N)C1c1ccc(O)c(OC)c1 (stereo not shown) [Compound 13d]

Ki (Table 2-4): 16.7 µM
IC50 (Table 2-4, read-out: IC50): 28 µM
SMILES: COc1ccc(C2C(C#N)=C(N)OC(C)=C2C(=O)OCc2ccccc2)cc1OC (stereo not shown) [Compound 14a]

Ki (Table 2-4): 3 µM
IC50 (Table 2-4, read-out: IC50): 5 µM
SMILES: CC1=C(C(=O)OCc2ccccc2)C(c2ccc(C(=O)O)cc2)C(C#N)=C(N)O1 (stereo not shown) [Compound 14b, 4-(2-Amino-5-(benzyloxycarbonyl)-3-cyano-6-methyl-4H-pyran-4-yl)benzoic Acid]

IC50 (Table 2-4, read-out: IC50): 10 to 100 µM
SMILES: COC(=O)c1ccc(C2C(C#N)=C(N)OC(C)=C2C(=O)OCc2ccccc2)cc1 (stereo not shown) [Compound 14c]

IC50 (Table 2-4, read-out: IC50): > 100 µM
SMILES: CC1=C(C(=O)OCc2ccccc2)C(c2ccc(C#N)cc2)C(C#N)=C(N)O1 (stereo not shown) [Compound 14d, Benzyl 6-amino-5-cyano-4-(4-cyanophenyl)-2-methyl-4H-pyran-3-carboxylate]

Ki (Table 2-5): 1.8 µM
IC50 (Table 2-5, read-out: IC50): 2 to 4 µM
SMILES: CC(=O)C1=C(C)OC(N)=C(C#N)C1c1ccc(C(=O)O)cc1 (stereo not shown) [Compound 15a, 4-(3-Acetyl-6-amino-5-cyano-2-methyl-4H-pyran-4-yl)benzoic Acid]

Ki (Table 2-5): 3.9 µM
IC50 (Table 2-5, read-out: IC50): 6 to 7 µM
SMILES: CC(=O)C1=C(C)OC(N)=C(C#N)C1c1cccc(C(=O)O)c1 (stereo not shown) [Compound 15b, 3-(3-Acetyl-6-amino-5-cyano-2-methyl-4H-pyran-4-yl)benzoic Acid]

Ki (Table 2-5): 16.7 µM
IC50 (Table 2-5, read-out: IC50): 28 µM
SMILES: COc1cc(C2C(C#N)=C(N)OC(C)=C2C(C)=O)ccc1O (stereo not shown) [Compound 15c]

Ki (Table 2-5): 59.5 µM
SMILES: CC(=O)C1=C(C)OC(N)=C(C#N)C1c1ccc(C#N)cc1 (stereo not shown) [Compound 15d]

Ki (Table 2-5): 10.1 µM
IC50 (Table 2-5, read-out: IC50): 17 µM
SMILES: CC(=O)C1=C(C)OC(N)=C(C#N)C1c1ccc2ccccc2n1 (stereo not shown) [Compound 15i, 5-Acetyl-2-amino-6-methyl-4-(quinolin-2-yl)-4H-pyran-3-carbonitrile]

IC50 (Table 2-5, read-out: IC50): > 100 µM
SMILES: CC(=O)C1=C(C)OC(N)=C(C#N)C1c1ccc2nccnc2c1 (stereo not shown) [Compound 15j, 5-Acetyl-2-amino-6-methyl-4-(quinoxalin-6-yl)-4H-pyran-3-carbonitrile]

Ki (Table 2-6): 4.2 µM
SMILES: CC(=O)NC1=C(C#N)C(c2ccc(C(=O)O)cc2)C(C(C)=O)=C(C)O1 (stereo not shown) [Compound 16, 4-(2-Acetamido-5-acetyl-3-cyano-6-methyl-4H-pyran-4-yl)benzoic Acid]

Ki (Table 2-7): 4.2 µM
IC50 (Table 2-7, read-out: IC50): 7 µM
SMILES: CCOC(=O)C1=C(C)OC(N)=C(C(=O)OCC)C1c1ccc(C(=O)O)cc1 (stereo not shown) [Compound 17a, 4-(2-Amino-3,5-bis(ethoxycarbonyl)-6-methyl-4H-pyran-4-yl)benzoic Acid]

IC50 (Table 2-8, read-out: IC50 μ): 40 µM
SMILES: COc1cc(C2C(C#N)=C(N)Oc3cc(C)oc(=O)c32)cc(Br)c1O (stereo not shown) [Compound 18]
